No end group written: not given here.
Legend:
xanthine oxidase (XO) [1] = molecular target: T1, xanthine oxidase (XO) (Bos taurus, UniProt P80457); assay: XOI activity IC50 in vitro (uric acid formation, absorbance 290 nm); format: biochemical, bovine milk; conditions: for IC50: synthesized peptides, 0.2 M potassium phosphate buffer pH 7.4, XO 0.07 U/mL, xanthine 0.48 mM, 37 °C, absorbance 290 nm, mean ± SD, n = 3, SD; for XOI activity at 15 mg/mL: peptide at 15 mg/mL
T1 construct: xanthine oxidase (X1875-5UN, derived from bovine milk); purchased Solarbio Co., Ltd. (Beijing, China) X1875-5UN; host or cells: bovine milk
Protocol: The XOI activity levels of SYCHs were determined and calculated with the methods reported by Liu and Wei with slight modifications. Xanthine was dissolved in 0.2 M potassium phosphate buffer (pH = 7.4) to a concentration of 0.48 mM. In addition, samples (SYCH, UF-1, UF-2, and UF-3) were also dissolved in 0.2 M potassium phosphate buffer (pH = 7.4). Next, 50 μL of sample solution and 50 μL of XO solution (0.07 U/mL) were mixed and incubated at 37 °C for 5 min, then 150 μL of xanthine solution was added to the mixture to continue the reaction. The absorbance of formed uric acid in the samples was monitored at 290 nm with a multifunctional microplate reader (Tecan Co., Ltd., Männedorf, Switzerland). The results were recorded for 10 min. The assay was performed in triplicate. The formula for the calculation of XOI activity is as follows: […]=(dA/dt)blank−(dA/dt)sample/(dA/dt)blank × 100% where (dA/dt)blank and (dA/dt)sample are the reaction rate without and with the test sample inhibitor, respectively. IC50 values were calculated from the mean values of data. XOI activity IC50 (the concentration of active compound required to observe 50% XO inhibition) was determined by plotting the percentage inhibition as a function of concentration of the test compound.

[2] = Dissolution of synthesized peptides in water; format: physicochemical
XO = conditions: concentration of 0.25 mg/mL; cited from earlier work
Protocol: Nongonierma reported that Trp inhibited XO by 70.3 ± 1.1% at a concentration of 0.25 mg/mL. Li claimed that relatively lower IC50 values were mainly located in the peptides containing Trp residue, reporting that the IC50 values of peptides WDD, WDQW, PPKNW, WPPKN, and WSREEQE were lower than those of peptides HCPF and ADIYTE, and that these ...

xanthine oxidase (XO) [3] = conditions: peptide from Skipjack tuna hydrolysates; read-out: XOI activity of IC50; cited from earlier work
Source text: Seven peptides (WDDMEKIW, APPERKYSVW, IADRMQKELT, LNSADLIK, LSNLGIVI, IGALRAVA, and HHTFYNELR) derived from SYC were obtained and their activity values, hemolysis, and toxicity were predicted. Their basic data (AA sequence, MW, PI, predicted activity values, hemolysis, toxicity, and IC50 for XOI activity) are summarized in Table 3. […] Only WW8 and AW10 were predicted to have higher potential physiological activity, and all were non-hemolytic except LSNLGIVI and LNSADLIK. The r ...

T1 sequence (P80457 whole entry): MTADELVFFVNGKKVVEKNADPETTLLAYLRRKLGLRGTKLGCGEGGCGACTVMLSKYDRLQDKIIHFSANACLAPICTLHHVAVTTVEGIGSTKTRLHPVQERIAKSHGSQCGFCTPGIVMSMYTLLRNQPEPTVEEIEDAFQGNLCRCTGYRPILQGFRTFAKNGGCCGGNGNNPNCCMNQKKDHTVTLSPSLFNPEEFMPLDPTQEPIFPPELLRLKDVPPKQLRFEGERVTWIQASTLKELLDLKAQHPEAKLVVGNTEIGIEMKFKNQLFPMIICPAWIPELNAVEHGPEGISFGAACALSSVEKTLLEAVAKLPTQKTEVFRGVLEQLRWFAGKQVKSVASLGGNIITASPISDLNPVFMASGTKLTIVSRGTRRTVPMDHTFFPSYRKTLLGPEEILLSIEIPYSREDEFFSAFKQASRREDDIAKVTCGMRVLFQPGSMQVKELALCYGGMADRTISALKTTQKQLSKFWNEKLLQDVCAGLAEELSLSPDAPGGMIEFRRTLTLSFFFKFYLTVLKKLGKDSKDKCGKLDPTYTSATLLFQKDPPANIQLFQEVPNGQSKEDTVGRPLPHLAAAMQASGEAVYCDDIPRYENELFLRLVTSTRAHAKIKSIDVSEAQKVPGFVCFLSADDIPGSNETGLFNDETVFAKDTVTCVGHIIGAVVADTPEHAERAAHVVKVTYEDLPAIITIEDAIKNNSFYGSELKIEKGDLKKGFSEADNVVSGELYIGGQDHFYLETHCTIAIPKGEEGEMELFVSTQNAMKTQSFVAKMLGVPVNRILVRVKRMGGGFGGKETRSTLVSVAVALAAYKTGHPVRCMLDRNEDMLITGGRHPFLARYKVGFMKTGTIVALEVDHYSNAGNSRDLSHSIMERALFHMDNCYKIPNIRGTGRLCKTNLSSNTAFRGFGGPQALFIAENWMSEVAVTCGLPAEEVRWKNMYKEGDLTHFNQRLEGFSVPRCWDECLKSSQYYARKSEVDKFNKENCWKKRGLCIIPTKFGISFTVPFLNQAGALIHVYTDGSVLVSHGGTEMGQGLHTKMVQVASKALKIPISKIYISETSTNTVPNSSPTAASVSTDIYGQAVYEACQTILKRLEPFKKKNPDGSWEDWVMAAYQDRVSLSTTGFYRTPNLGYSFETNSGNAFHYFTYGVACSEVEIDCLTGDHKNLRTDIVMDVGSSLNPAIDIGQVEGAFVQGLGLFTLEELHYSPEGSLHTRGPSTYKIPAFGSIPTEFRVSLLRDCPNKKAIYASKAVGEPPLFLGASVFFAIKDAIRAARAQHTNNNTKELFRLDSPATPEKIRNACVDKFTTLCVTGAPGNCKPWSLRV

## WDDMEKIW [WDDMEKIW, Trp-Asp-Asp-Met-Glu-Lys-Ile-Trp]
Xanthine oxidase (XO) [1]
  IC50: 3.16 ± 0.03 mM

## HHTFYNELR [peptide derived from SYC]
[2]
  Dissolution in water at 3 mg/mL: did not even dissolve in water

## IADRMQKELT [peptide derived from SYC]
Xanthine oxidase (XO) [1]
  XOI activity at 15 mg/mL: no XOI activity

## IGALRAVA [peptide derived from SYC]
[2]
  Dissolution in water at 3 mg/mL: did not even dissolve in water

## LNSADLIK [peptide derived from SYC]
Xanthine oxidase (XO) [1]
  XOI activity at 15 mg/mL: no XOI activity

## APPERKYSVW [APPERKYSVW, Ala-Pro-Pro-Glu-Arg-Lys-Tyr-Ser-Val-Trp]
Xanthine oxidase (XO) [1]
  IC50: 5.86 ± 0.02 mM

## N[C@@H](Cc1c[nH]c2ccccc12)C(=O)O [Trp]
XO
  Inhibition of XO: 70.3 ± 1.1%

## LSNLGIVI [peptide derived from SYC]
[2]
  Dissolution in water at 3 mg/mL: did not even dissolve in water

## ACECD [XOI peptide from Skipjack tuna hydrolysates]
Xanthine oxidase (XO) [3]
  IC50: 13.4 mM

From PMC10001067, “Xanthine Oxidase Inhibitory Peptides from Larimichthys polyactis: Characterization and In Vitro/In Silico Evidence” (Foods, 2023)
